The results in this text go back to patent US20230272464A1, “MODIFIED NUCLEOTIDES AND METHODS FOR DNA AND RNA POLYMERIZATION AND SEQUENCING” (SeNA Research, Incorporated, priority 2019, published 2023).

Holding throughout (assay type): biochemical
Assay [1] deals with Klenow fragment of DNA polymerase I (Escherichia coli, UniProt P00582). The experiment in a line: Polymerization using TTP or 2-Se-TTP (denatured PAGE). The text has this:
The 30-nt DNA products made from the polymerization using TTP and 2-Se-TTP refer to full-length product in FIGS. 2B and 2C, respectively. […] Results of thermal dynamic calculation (FIG. 18) are consistent with the denatured PAGE. The initial reaction rate ratio (TTP vs 2-Se-TTP) was around 1.24.

Another assay concerns the target DNA polymerase (Escherichia coli, UniProt P00582). Kind of assay: Misincorporation of 2-Se-TTP: extension with each dNTP except dCTP. The settings on record: dCTP not present; up to 30 minutes. The method, then: Experiments to examine the misincorporation of 2-Se-TTP were conducted as follows. Broadly, enzymatic extension reactions were performed using each naturally occurring dNTP except dCTP, knowing that misincorporations of TTP in place of dCTP are commonly the cause of decreased fidelity in DNA replications.

Assay [2] in a line: PCR of two target fragments with added 2-Se-TTP (agarose gel). The note with it: target fragments 268bp, 405bp; 2-Se-TTP additionally added. The text has this: No bands were found in two blank groups. Thus, incorporation of 2-Se-TTP can effectively reduce the non-specific bands in PCR.
Another assay has as its target Taq DNA polymerase (Thermus aquaticus, UniProt P19821). Kind of assay: PCR with dNTPαS I: suppression of nonspecific product. The text has this:
Compared to Bst DNA polymerase, Taq DNA polymerase is used much more widely, such as in polymerase chain reaction (PCR).
To test universality of suppression effect of dNTPαS I on nonspecific product, we checked 5 new pairs of primers (primer pair a, b, c, d, e) and 3 types of templates (plasmid, total human cDNA and human genome) with native dNTPs or S-modified dNTPs (FIG. 13). […] Further, S-dNTP can inhibit nonspecific amplification and increase specific product when amplifying simple plasmid template (FIG. 13B). Furthermore, when amplifying complex template (cDNA or genome), reactions using S-dNTP could exact specific product which can not be synthesized using all native dNTPs (FIG. 13B).

[3] abbreviates: plasmid and total cDNA templates.

Chain of Taq DNA polymerase (P19821 whole entry): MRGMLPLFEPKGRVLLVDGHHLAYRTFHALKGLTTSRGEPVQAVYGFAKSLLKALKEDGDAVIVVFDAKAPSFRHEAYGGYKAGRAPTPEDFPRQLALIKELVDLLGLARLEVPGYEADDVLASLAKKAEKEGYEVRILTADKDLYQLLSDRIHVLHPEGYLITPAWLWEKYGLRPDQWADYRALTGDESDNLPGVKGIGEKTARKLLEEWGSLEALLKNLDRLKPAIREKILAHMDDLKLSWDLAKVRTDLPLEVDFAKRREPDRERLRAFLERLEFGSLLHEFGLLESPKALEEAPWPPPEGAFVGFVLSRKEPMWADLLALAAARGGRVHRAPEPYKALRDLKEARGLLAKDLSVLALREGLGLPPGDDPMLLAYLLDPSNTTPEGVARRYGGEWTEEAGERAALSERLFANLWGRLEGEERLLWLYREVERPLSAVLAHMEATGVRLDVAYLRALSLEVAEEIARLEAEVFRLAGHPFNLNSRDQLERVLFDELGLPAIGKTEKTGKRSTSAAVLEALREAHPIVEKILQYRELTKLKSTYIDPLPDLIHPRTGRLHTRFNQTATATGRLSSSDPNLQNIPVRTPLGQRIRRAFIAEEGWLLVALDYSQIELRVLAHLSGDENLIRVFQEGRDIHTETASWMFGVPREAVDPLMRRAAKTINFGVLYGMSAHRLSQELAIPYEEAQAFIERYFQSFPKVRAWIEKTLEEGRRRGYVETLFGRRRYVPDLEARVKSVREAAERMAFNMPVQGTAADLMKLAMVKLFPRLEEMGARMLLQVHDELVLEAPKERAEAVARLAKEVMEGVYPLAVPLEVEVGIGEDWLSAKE
Chain of DNA polymerase (P00582 324-928): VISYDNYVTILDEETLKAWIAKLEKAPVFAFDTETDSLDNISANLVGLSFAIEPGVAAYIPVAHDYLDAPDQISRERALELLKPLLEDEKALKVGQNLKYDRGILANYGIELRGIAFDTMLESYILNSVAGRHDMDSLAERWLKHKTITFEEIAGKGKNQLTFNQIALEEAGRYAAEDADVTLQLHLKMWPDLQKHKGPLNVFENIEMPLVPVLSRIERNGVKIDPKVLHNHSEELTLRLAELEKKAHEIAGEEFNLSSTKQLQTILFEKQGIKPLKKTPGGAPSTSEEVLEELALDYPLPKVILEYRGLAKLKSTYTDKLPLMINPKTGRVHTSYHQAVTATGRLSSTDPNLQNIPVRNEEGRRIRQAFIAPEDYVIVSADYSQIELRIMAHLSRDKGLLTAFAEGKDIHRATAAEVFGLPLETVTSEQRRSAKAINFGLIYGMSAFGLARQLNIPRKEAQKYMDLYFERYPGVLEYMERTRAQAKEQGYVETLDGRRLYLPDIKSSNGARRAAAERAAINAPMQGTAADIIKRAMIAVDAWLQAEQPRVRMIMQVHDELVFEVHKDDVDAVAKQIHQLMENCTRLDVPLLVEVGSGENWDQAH
Chain of Klenow fragment of DNA polymerase I (P00582 324-928): as above

For the molecule `Cc1cn([C@H]2C[C@H](O)[C@@H](COP(=O)(O)OP(=O)(O)OP(=O)(O)O)O2)c(=[Se])[nH]c1=O` [Compound 2-Se-TTP, 2-Se-dTTP], the “initial reaction rate ratio (TTP vs 2-Se-TTP)” value in assay [1] (Klenow fragment) is reported as “around 1.24”. The “recognition by the Klenow fragment” value in assay [1] (compared with TTP) is recorded as “relatively well recognized”. In addition, the “misincorporation in place of dCTP (full-length product)” value at DNA polymerase is “little to no full-length product”. Further, the “bands in PCR (nonspecific amplification)” value in assay [2] is “clean and specific bands”.

For `Nc1ccn([C@H]2C[C@H](O)[C@@H](COP(O)(=S)OP(=O)(O)OP(=O)(O)O)O2)c(=O)n1` (some centres unmarked) [S-dCTP], the “suppression of nonspecific product in PCR” value (“suppression” for short) on Taq DNA polymerase (5 primer pairs, plasmid, total human cDNA and human genome templates) is recorded as “nearly completely suppressed”.

Turning to `Cc1cn([C@H]2C[C@H](O)[C@@H](COP(=O)(O)OP(=O)(O)OP(=O)(O)O)O2)c(=O)[nH]c1=O` [TTP, reference compound], the “misincorporation in place of dCTP (full-length product)” value at DNA polymerase is listed as “incorporated into the DNA primer sequence in a significant amount”.

Take `Nc1ccn([C@H]2C[C@H](O)[C@@H](COP(O)(=S)OP(=O)(O)OP(=O)(O)O)O2)c(=O)n1` (some centres unmarked) [dCTPαS I]: on Taq DNA polymerase (setting [3]), the “suppression” value was “suppressed nonspecific product nearly completely”.

Turning to `Nc1nc2c(ncn2C2CC(O)C(COP(O)(=[Se])OP(=O)(O)OP(=O)(O)O)O2)c(=O)[nH]1` (centres unmarked) [dGTPαSe I], on Taq DNA polymerase (setting [3]), the “suppression” value is given as “suppressed nonspecific product nearly completely”.
